Patent US12577138B2, “Using Daphnia for bioremediation” (priority 2019, dated 2026)

Test system: Daphnia magna genotype pools
Assay: Viability of Daphnia magna genotype pools (1999, 1980, 1960) exposed to Carbaryl for four weeks
Assay type: in vivo
Conditions: Carbaryl 10 μg/L
Procedure: The ability to thrive of different Daphnia magna genotype pools resurrected from 1999, 1980, and 1960, was tested in presence of high concentrations of the carbamate insecticide Carbaryl (10 μg/L). Carbamate pesticides have been used at high levels since the 1970s, and so carbamate pesticides represent a common contaminant to current wastewater.
The three genotype pools were exposed to high concentrations of the carbamate insecticide Carbaryl in replicated large aquaria of 10 L. The aquaria contained borehole water to which a known concentration of Carbaryl was added. Each pool comprised different genotypes but the number of individuals in each pool was identical.
Prior to the exposure, the genotypes were individually cultured for two generations in the following conditions to control for maternal effects and synchronize reproduction: 20° C.; long photoperiod (16:8 light:dark regime); feed daily with 0.8 mg Carbon/L of C. vulgaris; medium was renewed every second day. After this phase, five 24-48 h old juveniles from the second brood of the third generation from 7 genotypes of each pool were randomly assigned to three replicated 10 L aquaria resulting in a total of 105 animals per aquarium (5 juveniles×7 genotypes×3 pools). The aquaria were then exposed to Carbaryl for four weeks (3 clonal generations). […]
The initial occurrence of each pool of genotypes was then compared to the random subset of animals sampled at the end of the experiment and genetically fingerprinted. This allowed to quantify changes in the occurrence of pool of genotypes from the three initially equally inoculated three pools. Changes in the occurrence of each pool of genotypes between the inoculum and the end of the experiment were quantified with a chi-squared test using the “stats” package in R v. […]

With `CNC(=O)Oc1cccc2ccccc12` [Carbaryl] the “change in occurrence of genotypes versus initial inoculum” value (“change in occurrence” below) (1960 pool) was “did not experience a significant change in the number of genotypes”, the “change in occurrence” value (1980 pool) was “significantly decrease in the number of genotypes and almost disappeared” and the “change in occurrence” value (1999 pool) was “did not experience a significant change in the number of genotypes”.
